These are literature values, as cited in US9745567B2, “Compositions and methods for treating multiple sclerosis” (REVALESIO CORPORATION, priority 2008, dated 2017).

Counter-ions that a name gives are not always drawn. Like-named read-outs stand apart in the source and are kept apart here.

In series [1] the target is T1, MMP-2 (Homo sapiens, UniProt P08253).
T1 sequence (P08253 110-660): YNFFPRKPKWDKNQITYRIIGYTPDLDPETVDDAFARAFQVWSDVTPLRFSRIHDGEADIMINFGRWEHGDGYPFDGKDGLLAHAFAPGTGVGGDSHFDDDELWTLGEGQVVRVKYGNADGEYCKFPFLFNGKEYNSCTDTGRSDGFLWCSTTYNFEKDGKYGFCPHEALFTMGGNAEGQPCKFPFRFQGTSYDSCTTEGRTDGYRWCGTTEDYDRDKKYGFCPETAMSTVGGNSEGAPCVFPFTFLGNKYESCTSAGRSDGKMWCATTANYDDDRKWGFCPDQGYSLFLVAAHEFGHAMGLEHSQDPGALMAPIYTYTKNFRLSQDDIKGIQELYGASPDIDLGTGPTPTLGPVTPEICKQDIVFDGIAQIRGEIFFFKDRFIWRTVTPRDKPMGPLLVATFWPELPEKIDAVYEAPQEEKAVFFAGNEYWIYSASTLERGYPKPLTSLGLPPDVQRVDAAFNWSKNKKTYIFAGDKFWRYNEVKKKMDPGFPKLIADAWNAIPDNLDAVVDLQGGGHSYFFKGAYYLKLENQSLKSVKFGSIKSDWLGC

For series [2], the target named is MMP-9 (Homo sapiens, UniProt P14780).
Chain of MMP-9 (P14780 94-707, species assumed): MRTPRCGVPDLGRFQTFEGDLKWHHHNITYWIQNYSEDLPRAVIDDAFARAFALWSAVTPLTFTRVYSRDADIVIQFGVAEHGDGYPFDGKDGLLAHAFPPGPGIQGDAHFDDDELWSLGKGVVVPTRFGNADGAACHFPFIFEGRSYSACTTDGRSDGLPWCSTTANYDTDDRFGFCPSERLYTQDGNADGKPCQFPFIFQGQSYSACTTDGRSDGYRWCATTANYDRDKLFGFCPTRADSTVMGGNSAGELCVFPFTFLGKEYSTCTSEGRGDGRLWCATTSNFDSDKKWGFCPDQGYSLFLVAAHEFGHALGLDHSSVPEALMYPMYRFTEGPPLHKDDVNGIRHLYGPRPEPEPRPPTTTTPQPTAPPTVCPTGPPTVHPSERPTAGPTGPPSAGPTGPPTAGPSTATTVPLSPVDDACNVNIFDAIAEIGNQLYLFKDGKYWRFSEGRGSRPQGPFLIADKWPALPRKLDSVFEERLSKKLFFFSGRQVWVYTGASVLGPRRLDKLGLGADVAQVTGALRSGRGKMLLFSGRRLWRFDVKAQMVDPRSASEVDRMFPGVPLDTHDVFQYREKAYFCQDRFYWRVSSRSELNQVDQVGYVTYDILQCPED
Series [3] addresses T2, MMP-3 (Homo sapiens, UniProt P08254). Particulars: for Ki values, human MMP-3 catalytic domain: competitive inhibitor.
Target sequence in this assay (P08254 100-477): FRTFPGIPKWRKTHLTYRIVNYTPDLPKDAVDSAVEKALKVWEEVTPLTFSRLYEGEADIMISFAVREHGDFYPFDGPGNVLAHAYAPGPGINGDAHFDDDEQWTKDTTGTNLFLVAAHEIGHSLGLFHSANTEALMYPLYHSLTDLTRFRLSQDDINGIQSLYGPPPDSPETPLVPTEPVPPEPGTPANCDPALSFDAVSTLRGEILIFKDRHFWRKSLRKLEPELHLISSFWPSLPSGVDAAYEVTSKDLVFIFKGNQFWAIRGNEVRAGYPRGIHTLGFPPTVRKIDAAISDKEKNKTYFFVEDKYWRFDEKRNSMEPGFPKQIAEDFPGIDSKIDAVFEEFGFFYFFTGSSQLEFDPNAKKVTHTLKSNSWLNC
The target of series [4] is murine macrophage metalloelastase (MME/MMP-12) (Mus musculus, UniProt P34960).
Chain of murine macrophage metalloelastase (MME/MMP-12) (P34960 110-473): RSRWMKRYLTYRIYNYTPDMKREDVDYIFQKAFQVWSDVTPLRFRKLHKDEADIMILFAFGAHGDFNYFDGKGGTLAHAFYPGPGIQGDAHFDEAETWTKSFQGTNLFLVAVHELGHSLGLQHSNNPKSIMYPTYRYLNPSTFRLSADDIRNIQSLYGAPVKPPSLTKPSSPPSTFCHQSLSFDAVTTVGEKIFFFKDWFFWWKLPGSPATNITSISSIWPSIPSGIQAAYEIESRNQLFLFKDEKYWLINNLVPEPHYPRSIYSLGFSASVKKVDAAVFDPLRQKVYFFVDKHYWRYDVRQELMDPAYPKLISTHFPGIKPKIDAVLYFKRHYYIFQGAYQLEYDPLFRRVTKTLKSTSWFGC
Series [5] relates to multiple sclerosis. As to conditions: clinical study, 943 patients with primary progressive MS.
Series [6] addresses T3, rabbit MMP-3 catalytic domains (Oryctolagus cuniculus, UniProt P28863).
T3 construct: rabbit MMP-3 catalytic domains
Particulars: competitive inhibitor.

The target in series [7] is T4, MMP-1 (Homo sapiens, UniProt P03956).
T4 sequence (P03956 100-469): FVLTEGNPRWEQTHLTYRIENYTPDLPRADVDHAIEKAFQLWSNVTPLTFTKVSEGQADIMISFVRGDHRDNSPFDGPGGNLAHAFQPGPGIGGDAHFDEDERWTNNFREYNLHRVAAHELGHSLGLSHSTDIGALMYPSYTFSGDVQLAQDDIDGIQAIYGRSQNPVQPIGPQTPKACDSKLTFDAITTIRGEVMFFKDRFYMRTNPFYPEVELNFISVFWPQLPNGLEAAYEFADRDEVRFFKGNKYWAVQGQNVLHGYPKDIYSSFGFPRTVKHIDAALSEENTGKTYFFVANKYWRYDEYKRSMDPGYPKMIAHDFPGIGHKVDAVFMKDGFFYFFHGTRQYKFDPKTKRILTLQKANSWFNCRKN

Series [8] concerns the target T2, MMP-3.
Target sequence in this assay (P08254 100-477, species assumed): as the sequence (P08254 100-477) above
For series [9], the target named is T5, MMP-7 (Homo sapiens, UniProt P09237).
T5 sequence (P09237 95-267): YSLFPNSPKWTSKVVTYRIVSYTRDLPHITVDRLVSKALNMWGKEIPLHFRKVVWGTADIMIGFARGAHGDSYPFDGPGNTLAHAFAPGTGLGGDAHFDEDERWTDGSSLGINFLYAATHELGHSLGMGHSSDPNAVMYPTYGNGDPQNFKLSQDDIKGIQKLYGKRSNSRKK

Series [10] has as its target MMP-13 (Homo sapiens, UniProt P45452).
Series [11] concerns the target pseudolysin from P. aeruginosa (Pseudomonas aeruginosa, UniProt P14756).
Series [12] has as its target MMP-8 (Homo sapiens, UniProt P22894).
Series [13] addresses TACE (Homo sapiens, UniProt P78536).

Chain of MMP-8 (P22894 101-467, species assumed): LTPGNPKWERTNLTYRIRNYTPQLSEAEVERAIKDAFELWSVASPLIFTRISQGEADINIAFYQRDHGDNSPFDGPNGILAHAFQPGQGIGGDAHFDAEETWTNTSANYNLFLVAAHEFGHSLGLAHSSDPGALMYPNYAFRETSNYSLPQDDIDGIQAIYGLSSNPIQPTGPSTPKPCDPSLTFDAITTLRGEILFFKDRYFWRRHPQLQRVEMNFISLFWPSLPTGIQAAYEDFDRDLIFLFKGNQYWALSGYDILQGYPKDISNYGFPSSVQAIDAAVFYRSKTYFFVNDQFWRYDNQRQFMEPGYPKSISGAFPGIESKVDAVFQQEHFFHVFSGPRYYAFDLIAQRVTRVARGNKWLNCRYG
T3 sequence (P28863 101-273 limits assumed): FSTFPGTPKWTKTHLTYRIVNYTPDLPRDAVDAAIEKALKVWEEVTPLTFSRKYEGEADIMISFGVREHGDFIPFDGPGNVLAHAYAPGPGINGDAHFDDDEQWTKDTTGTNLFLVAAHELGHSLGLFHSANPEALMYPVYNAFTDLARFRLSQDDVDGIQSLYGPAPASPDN
Chain of TACE (P78536 215-824): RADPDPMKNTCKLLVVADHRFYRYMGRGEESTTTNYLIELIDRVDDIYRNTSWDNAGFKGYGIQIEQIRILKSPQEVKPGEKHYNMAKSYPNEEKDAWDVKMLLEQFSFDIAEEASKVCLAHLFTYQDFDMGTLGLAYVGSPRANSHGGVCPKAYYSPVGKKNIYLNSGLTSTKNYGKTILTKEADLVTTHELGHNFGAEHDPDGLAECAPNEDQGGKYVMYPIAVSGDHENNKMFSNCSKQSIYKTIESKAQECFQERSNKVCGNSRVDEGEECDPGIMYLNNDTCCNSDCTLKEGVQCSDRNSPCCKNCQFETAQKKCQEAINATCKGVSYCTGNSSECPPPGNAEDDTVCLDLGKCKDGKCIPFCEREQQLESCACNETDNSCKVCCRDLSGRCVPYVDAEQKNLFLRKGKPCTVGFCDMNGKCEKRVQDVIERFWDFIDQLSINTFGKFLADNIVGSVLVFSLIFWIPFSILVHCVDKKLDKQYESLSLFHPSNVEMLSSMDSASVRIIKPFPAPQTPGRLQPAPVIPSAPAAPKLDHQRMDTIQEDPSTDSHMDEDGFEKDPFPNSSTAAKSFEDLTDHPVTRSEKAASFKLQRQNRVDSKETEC
Chain of pseudolysin from P. aeruginosa (P14756 198-498): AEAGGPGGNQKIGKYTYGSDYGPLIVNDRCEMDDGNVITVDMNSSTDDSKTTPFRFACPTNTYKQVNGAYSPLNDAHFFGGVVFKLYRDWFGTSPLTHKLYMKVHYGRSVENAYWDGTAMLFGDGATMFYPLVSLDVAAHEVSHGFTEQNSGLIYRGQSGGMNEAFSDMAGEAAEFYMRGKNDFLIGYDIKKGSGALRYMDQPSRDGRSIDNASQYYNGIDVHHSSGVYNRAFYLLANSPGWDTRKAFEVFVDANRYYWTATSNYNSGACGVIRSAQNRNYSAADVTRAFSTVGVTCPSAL

Regarding `CCCCCCCC/C=C\CCCCCCCC(=O)NO` [MMP-2 Inhibitor I (OA-Hy)], the Ki (usually a measure of affinity in units of concentration, obtained from inhibition or displacement) in [1] is 1700 nM.
Regarding `N=C(NCCCCCCNC(=N)NC(=N)Nc1ccc(Cl)cc1)NC(=N)Nc1ccc(Cl)cc1` [Chlorhexidine, Dihydrochloride], the “inhibition of MMP-2” value in [1] is “Acts as a Zn2+-chelating inhibitor of MMP-2 and MMP-9”. In addition, the “inhibition of MMP-9” value in series [2] is “Acts as a Zn2+-chelating inhibitor of MMP-2 and MMP-9”.
In the case of `COc1ccc(S(=O)(=O)N(Cc2ccccc2)C(CC(C)C)C(=O)NO)cc1` (centres unmarked) [MMP-3 Inhibitor VIII], the Ki in series [3] is 23 nM. The 50% inhibitory concentration (IC50) (in general, the point on the concentration scale where inhibition reaches its midpoint) in series [4] was 13 nM.
On to glatiramer acetate, for which the “progression of disability and disease” value in series [5] was “failed to halt the progression of disability and the disease”.
For the compound `O=S(=O)(CCC(S)CS)c1ccc(Oc2ccccc2)cc1` (centres unmarked) [compound 1, 4-(4-phenoxyphenylsulfonyl)butane-1,2-dithiol], the “inhibition of MMP-2” value in [1] was “bind selectively and inhibit potently”. Besides, in [2], the “inhibition of MMP-9” value is “bind selectively and inhibit potently”.
Consider “H-Cys1-Thr-Thr-His-Trp-Gly-Phe-Thr-Leu-Cys10-OH (cyclic: 1 → 10) [MMP-2/MMP-9 Inhibitor III]”, for which, in series [1], the half-inhibitory concentration (IC50) is 10 µM.
As for `O=C(O)CCC(=NO)c1ccc(-c2ccccc2)cc1` [MMP-3 Inhibitor VI, 4-(4′-Biphenyl)-4-hydroxyimino-butyric Acid], in series [3], the “Ki values, human MMP-3 catalytic domain” value is “the low μM range”. Further, the “Ki values, rabbit MMP-3 catalytic domain” value in series [6] is given as “the low μM range”.
Take `CC(NC(=O)C(Cc1ccccc1)NC(=O)CCC(=O)NO)C(N)=O` (centres unmarked) [MMP-2/MMP-9 Inhibitor IV, HONH—COCH2CH2CO-FA-NH2]: the Ki in [1] is 13.9 nM; in series [2], 600 nM.
As for `CNC(=O)C(CCc1ccccc1)NC(=O)C(CC(=O)NO)CC(C)C` (centres unmarked) [MMP Inhibitor III], the IC50 is 7.4 nM in [7]; 0.0023 µM in [1]; 0.135 µM in series [8]; 10 to 100 nM in [9]; 0.001 to 0.01 µM in series [10].
For the compound “RCGVPD [MMP-3 Inhibitor I, Ac-Arg-Cys-Gly-Val-Pro-Asp-NH2]”, in [8], the IC50 is 5 µM.
As to `O=C(O)CCC(=NO)c1ccc2oc3ccccc3c2c1` [MMP-3 Inhibitor V, 4-Dibenzofuran-2′-yl-4-hydroximino-butyric Acid], the “Ki values, human MMP-3 catalytic domain” value in series [3] was “the low μM range”. Besides, the “Ki values, rabbit MMP-3 catalytic domain” value in series [6] is “the low μM range”.
As for `COC(=O)[C@H](Cc1ccccc1)NC(=O)Nc1nnc(S)s1` [MMP-2/MMP-3 Inhibitor I], the inhibition constant Ki in series [1] was 17000 nM.
“HONH—COCH2CH2CO-Phe-Ala-NH2 [MMP Inhibitor IV]”: the “inhibition of pseudolysin from P. aeruginosa” value in [11] is reported as “potently inhibits MMPs and”.
For `CC(C)C[C@H](CC(=O)O)C(=O)N[C@@H](Cc1c[nH]c2ccccc12)C(=O)N[C@@H](C)c1ccccc1` [GM 1489], the inhibition constant Ki in series [7] was 0.2 nM; in [1], 500 nM; in series [8], 20 µM; in series [12], 100 nM; in [2], 100 nM.
Turning to “4-Abz-Gly-Pro-D-Leu-D-Ala-NH—OH [MMP Inhibitor I (FN-439)]”, the concentration for half-maximal inhibition (IC50) in series [7] is 1000 nM; in [8], 150 µM; in [12], 1000 nM; in [2] it was 30 µM.
For the compound `O=C(NCCCCN1CCOCC1)c1cc2ccccc2o1` [CL-82198], the “inhibition of MMP-1” value in series [7] is “Does not inhibit”. Moreover, the “inhibition of MMP-9” value in series [2] is “Does not inhibit”. Moreover, the 50% inhibitory concentration (IC50) in series [10] is 10 µM. The “inhibition of TACE” value in series [13] is “Does not inhibit”.
In the case of `O=S(=O)(CCCC(S)CS)c1ccc(Oc2ccccc2)cc1` (centres unmarked) [compound 2, 5-(4-phenoxyphenylsulfonyl)pentane-1,2-dithiol], the “inhibition of MMP-2” value in series [1] is “bind selectively and inhibit potently”. Moreover, the “inhibition of MMP-9” value in [2] is “bind selectively and inhibit potently”.
